Measured values from PubChem BioAssay AID1963443 (Molecular Pharmacology Branch, DTP, NCI, 2024).
Where “and” joins values, the source holds several entries; their conditions need not be identical. Equal values may be shown once.

System: MDA-MB-231 complex spheroids, growth inhibition
Assay: Anticancer human tumor MDA-MB-231 cell line growth inhibition [Asc];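 further: spheroids exposed to compounds for 7 days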
Details: for viability, T/C: stronger effect = lower value
Procedure, shortened: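 Complex solid-tumor spheroids incorporating human endothelial and mesenchymal stem cells received single agents or combinations over half-log dilution ranges anchored to clinical Cmax.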

[1] = curve of first compound, second compound 0.1 µM
[2] = curve of first compound, second compound 0.316 µM
[3] = curve of first compound, second compound 1 µM
[4] = second compound 0.1 µM, first compound 0.0316 µM
[5] = second compound 0.1 µM, first compound 0.1 µM
[6] = second compound 0.316 µM, first compound 0.0316 µM
[7] = second compound 0.316 µM, first compound 0.1 µM
[8] = second compound 1 µM, first compound 0.0316 µM
[9] = second compound 1 µM, first compound 0.1 µM

In the case of `CNC(C)C(=O)NC1CN(S(=O)(=O)c2cccc(S(=O)(=O)N3CCC4CCC(C(=O)NC(c5ccccc5)c5ccccc5)N4C(=O)C(NC(=O)C(C)NC)C3)c2)CCC2CCC(C(=O)NC(c3ccccc3)c3ccccc3)N2C1=O` (centres undefined) + CCN1C(C(=O)NC23CCC(C(=O)O)(CC2)CC3)C(c2cccc(Cl)c2F)C2(C(=O)Nc3cc(Cl)ccc32)C12CCCCC2, the IC50 (curve of first compound, second compound 0.03 µM) is reported as less than 3.16 nM, the IC50 (curve of first compound, second compound 0.0949 µM) is reported as less than 3.16 nM and the IC50 (curve of first compound, second compound 0.3 µM) is reported as less than 3.16 nM. For the same compound, the IC50 (curve of first compound, second compound 0.949 µM) was less than 3.16 nM, the IC50 (curve of first compound, second compound 3 µM) was less than 3.16 nM and the viability, T/C (second compound 0.03 µM, first compound 0.00316 µM) was 6.71%. The viability, T/C (second compound 0.03 µM, first compound 0.01 µM) was 1.67%, the viability, T/C (second compound 0.03 µM, first compound 0.0316 µM) was 1.57% and the viability, T/C (second compound 0.03 µM, first compound 0.1 µM) was 1.22%. The viability, T/C (second compound 0.03 µM, first compound 0.316 µM) was 1.14%, the viability, T/C (second compound 0.03 µM, first compound 1 µM) was 0.97% and the viability, T/C (second compound 0.0949 µM, first compound 0.00316 µM) was 5.03%. It also gave a viability, T/C (second compound 0.0949 µM, first compound 0.01 µM) of 1.98%, a viability, T/C (second compound 0.0949 µM, first compound 0.0316 µM) of 1.66% and a viability, T/C (second compound 0.0949 µM, first compound 0.1 µM) of 1.78%. For the same compound, the viability, T/C (second compound 0.0949 µM, first compound 0.316 µM) was 1.27%, the viability, T/C (second compound 0.0949 µM, first compound 1 µM) was 0.74% and the viability, T/C (second compound 0.3 µM, first compound 0.00316 µM) was 5.55%. It also gave a viability, T/C (second compound 0.3 µM, first compound 0.01 µM) of 3.61%, a viability, T/C (second compound 0.3 µM, first compound 0.0316 µM) of 2.08% and a viability, T/C (second compound 0.3 µM, first compound 0.1 µM) of 2.17%. The viability, T/C (second compound 0.3 µM, first compound 0.316 µM) was 0.84%, the viability, T/C (second compound 0.3 µM, first compound 1 µM) was 1.46% and the viability, T/C (second compound 0.949 µM, first compound 0.00316 µM) was 3.82%. For the same compound, the viability, T/C (second compound 0.949 µM, first compound 0.01 µM) was 2.39%, the viability, T/C (second compound 0.949 µM, first compound 0.0316 µM) was 2.37% and the viability, T/C (second compound 0.949 µM, first compound 0.1 µM) was 0.77%. For the same compound, the viability, T/C (second compound 0.949 µM, first compound 0.316 µM) was 0.84%, the viability, T/C (second compound 0.949 µM, first compound 1 µM) was 0.96% and the viability, T/C (second compound 3 µM, first compound 0.00316 µM) was 2.23%. It also gave a viability, T/C (second compound 3 µM, first compound 0.01 µM) of 1%, a viability, T/C (second compound 3 µM, first compound 0.0316 µM) of 1.14% and a viability, T/C (second compound 3 µM, first compound 0.1 µM) of 0.61%. The viability, T/C (second compound 3 µM, first compound 0.316 µM) was 0.68% and the viability, T/C (second compound 3 µM, first compound 1 µM) was 0.75%.
Work on `C#Cc1c(F)ccc2cc(O)cc(-c3ncc4c(N5CC6CCC(C5)N6)nc(OCC56CCCN5CC(F)C6)nc4c3F)c12` (centres undefined) + Cc1c(S(C)(=O)=O)c(-c2cc(F)cc(N3CCN(c4ccc(NS(=O)(=O)c5ccc(NC(CCN6CCC(C(=O)OCCCP(=O)(O)O)CC6)CSc6ccccc6)c(S(=O)(=O)C(F)(F)F)c5)cc4)CC3)c2)c(-c2ccc(Cl)cc2)n1C(C)C yielded an IC50 [1] greater than 10000 nM, an IC50 [2] of 7530 nM and an IC50 [3] of 4700 nM. For the same compound, the IC50 (curve of first compound, second compound 3.16 µM) was 3260 nM, the IC50 (curve of first compound, second compound 10 µM) was 3280 nM and the viability, T/C [4] was 96.6%. The viability, T/C [5] was 103%, the viability, T/C (second compound 0.1 µM, first compound 0.316 µM) was 95.6% and the viability, T/C (second compound 0.1 µM, first compound 1 µM) was 73.6%. For the same compound, the viability, T/C (second compound 0.1 µM, first compound 3.16 µM) was 68.7%, the viability, T/C (second compound 0.1 µM, first compound 10 µM) was 50.7% and the viability, T/C [6] was 105%. It also gave a viability, T/C [7] of 104%, a viability, T/C (second compound 0.316 µM, first compound 0.316 µM) of 98.3% and a viability, T/C (second compound 0.316 µM, first compound 1 µM) of 76.6%. It also gave a viability, T/C (second compound 0.316 µM, first compound 3.16 µM) of 63.4%, a viability, T/C (second compound 0.316 µM, first compound 10 µM) of 45.5% and a viability, T/C [8] of 102%. For the same compound, the viability, T/C [9] was 96.8%, the viability, T/C (second compound 1 µM, first compound 0.316 µM) was 101% and the viability, T/C (second compound 1 µM, first compound 1 µM) was 74.2%. It also gave a viability, T/C (second compound 1 µM, first compound 3.16 µM) of 59.6%, a viability, T/C (second compound 1 µM, first compound 10 µM) of 36.1% and a viability, T/C (second compound 3.16 µM, first compound 0.0316 µM) of 93.3%. It also gave a viability, T/C (second compound 3.16 µM, first compound 0.1 µM) of 94.6%, a viability, T/C (second compound 3.16 µM, first compound 0.316 µM) of 97.7% and a viability, T/C (second compound 3.16 µM, first compound 1 µM) of 72.2%. For the same compound, the viability, T/C (second compound 3.16 µM, first compound 3.16 µM) was 52.9%, the viability, T/C (second compound 3.16 µM, first compound 10 µM) was 23.3% and the viability, T/C (second compound 10 µM, first compound 0.0316 µM) was 97.2%. The viability, T/C (second compound 10 µM, first compound 0.1 µM) was 97.2%, the viability, T/C (second compound 10 µM, first compound 0.316 µM) was 99% and the viability, T/C (second compound 10 µM, first compound 1 µM) was 89.5%. The viability, T/C (second compound 10 µM, first compound 3.16 µM) was 51.3% and the viability, T/C (second compound 10 µM, first compound 10 µM) was 12.7%.
`Cn1ncnc1[C@H]1c2n[nH]c(=O)c3cc(F)cc(c23)N[C@@H]1c1ccc(F)cc1` + CNC(C)C(=O)NC1CN(S(=O)(=O)c2cccc(S(=O)(=O)N3CCC4CCC(C(=O)NC(c5ccccc5)c5ccccc5)N4C(=O)C(NC(=O)C(C)NC)C3)c2)CCC2CCC(C(=O)NC(c3ccccc3)c3ccccc3)N2C1=O was tested, and the IC50 (curve of first compound, second compound 0.01 µM) was less than 0.316 nM, the IC50 (curve of first compound, second compound 0.0316 µM) was less than 0.316 nM and the IC50 [1] was less than 0.316 nM. For the same compound, the IC50 [2] was less than 0.316 nM, the IC50 [3] was less than 0.316 nM and the viability, T/C (second compound 0.01 µM, first compound 0.000316 µM) was 1.83%. The viability, T/C (second compound 0.01 µM, first compound 0.001 µM) was 2.14%, the viability, T/C (second compound 0.01 µM, first compound 0.00316 µM) was 2.04% and the viability, T/C (second compound 0.01 µM, first compound 0.01 µM) was 2.04%. The viability, T/C (second compound 0.01 µM, first compound 0.0316 µM) was 1.45%, the viability, T/C (second compound 0.01 µM, first compound 0.1 µM) was 1.63% and the viability, T/C (second compound 0.0316 µM, first compound 0.000316 µM) was 1.73%. It also gave a viability, T/C (second compound 0.0316 µM, first compound 0.001 µM) of 1.45%, a viability, T/C (second compound 0.0316 µM, first compound 0.00316 µM) of 1.76% and a viability, T/C (second compound 0.0316 µM, first compound 0.01 µM) of 1.3%. For the same compound, the viability, T/C (second compound 0.0316 µM, first compound 0.0316 µM) was 1.2%, the viability, T/C (second compound 0.0316 µM, first compound 0.1 µM) was 1.22% and the viability, T/C (second compound 0.1 µM, first compound 0.000316 µM) was 1.17%. For the same compound, the viability, T/C (second compound 0.1 µM, first compound 0.001 µM) was 1.47%, the viability, T/C (second compound 0.1 µM, first compound 0.00316 µM) was 0.96% and the viability, T/C (second compound 0.1 µM, first compound 0.01 µM) was 1.19%. The viability, T/C [4] was 1.34%, the viability, T/C [5] was 1.16% and the viability, T/C (second compound 0.316 µM, first compound 0.000316 µM) was 1.12%. It also gave a viability, T/C (second compound 0.316 µM, first compound 0.001 µM) of 1.11%, a viability, T/C (second compound 0.316 µM, first compound 0.00316 µM) of 1.32% and a viability, T/C (second compound 0.316 µM, first compound 0.01 µM) of 0.91%. For the same compound, the viability, T/C [6] was 1.05%, the viability, T/C [7] was 1.11% and the viability, T/C (second compound 1 µM, first compound 0.000316 µM) was 1.53%. It also gave a viability, T/C (second compound 1 µM, first compound 0.001 µM) of 1.2%, a viability, T/C (second compound 1 µM, first compound 0.00316 µM) of 1.23% and a viability, T/C (second compound 1 µM, first compound 0.01 µM) of 1.23%. For the same compound, the viability, T/C [8] was 1.28% and the viability, T/C [9] was 1.26%.
For `NC(=O)C(=Cn1cnc(-c2cc(C(F)(F)F)cc(C(F)(F)F)c2)n1)c1cncnc1`, the viability, T/C (compound 0.000949 µM) was 95.7% and 87.8% and 73.5%, the viability, T/C (compound 0.003 µM) was 92.4% and 95.1% and 81.3% and the viability, T/C (compound 0.00949 µM) was 84.7% and 87.1% and 84.5%. The viability, T/C (compound 0.03 µM) was 57.8% and 56.5% and 60.4%, the viability, T/C (compound 0.0949 µM) was 50.5% and 47% and 48.1% and the viability, T/C (compound 0.3 µM) was 14.4% and 21.2% and 21.8%. For the same compound, the IC50 (curve of compound) was 72.4 nM and 61.5 nM and 74.9 nM.
For `NC1CCC(NC2CC2c2ccccc2)CC1` (centres undefined), the viability, T/C (compound 0.000316 µM) was 102% and 98.5% and 104%, the viability, T/C (compound 0.001 µM) was 108% and 99% and 105% and the viability, T/C (compound 0.00316 µM) was 105% and 98.7% and 107%. The viability, T/C (compound 0.01 µM) was 105% and 98.6% and 101%, the viability, T/C (compound 0.0316 µM) was 103% and 96.8% and 107% and the viability, T/C (compound 0.1 µM) was 104% and 98.3% and 99.8%. For the same compound, the IC50 (curve of compound) was greater than 100 nM.
